# Reference: patent publication US7514454B2, “Piperidin-2,6-dione pamoate salts and their use for the treatment of stress-related affective disorders” (Prestwick Pharmaceuticals, Inc., priority 2002, dated 2009)
# Columns and labels:
# tryptophan hydroxylase = experiment: blockade of tryptophan hydroxylase activation; assay type: biochemical; conditions: activation by metabolic inhibitors such as guanidine and sodium cyanide
# [1] = rats, 200 mg/kg/day p.o., cited from earlier work
# [2] = about 4 mg/kg/day (200-400 mg/day for human patients); cited from earlier work
# [3] = 1 mg b.i.d. (about 30 μg/kg/day), FDA permitted dose levels; cited from earlier work
blockade of tryptophan hydroxylase activation (tryptophan hydroxylase),Structure (SMILES),"hepatocyte changes revealed by post-mortem examination ([1]; 1 year, not detected by routine transaminase determinations)","weight loss ([1]; over the 1-year period, immediate and continuing) [%]",effectiveness in the treatment of anxiety and depression [2],anxiolytic properties [3]
blocked,"COc1cccc(C2(CCCN(C)C)C(=O)NC(=O)CC2(C)C)c1 (centres unmarked) [AGN 2979 pamoate, 3(3-methoxyphenyl)-3-(3-dimethylaminopropyl)-4,4-dimethyl-piperidine-2,6-dione pamoate]",,,,
,COc1cccc(C2(CCCN(C)C)C(=O)NC(=O)CC2(C)C)c1.Cl (centres unmarked) [hydrochloride salt of AGN 2979],hepatocyte changes,40,effective,only marginally effective
